Measurements: patent publication US20130266636A1, “METHODS FOR BLOCKING CELL PROLIFERATION AND TREATING DISEASES AND CONDITIONS RESPONSIVE TO CELL GROWTH INHIBITION” (THE REGENTS OF THE UNIVERSITY OF CALIFORNIA, priority 2010, published 2013)
“Also recorded” adds a separate entry of the source.

Key:
NCI-60 panel = NCI-60 panel growth inhibition, overall; assay type: cell-based, human
Description: FIG. 8 illustrates […] panel showing the half maximal growth inhibitory concentration of KG5 in […] human cancer cell lines.
(§1) Table 1 summarizes KG5's effect in 60 NCI cancer cell lines: the NCI-60 panel showing the half maximal growth inhibitory concentration of KG5 and the RAS and BRAF status in 60 human cancer cell lines.

CAKI-1 = experiment: NCI-60 panel growth inhibition; assay type: cell-based; conditions: Homo sapiens, Renal Cancer, mutated RAS No, mutated BRAF No
Description: as §1

SR = experiment: NCI-60 panel growth inhibition; assay type: cell-based; conditions: Homo sapiens, Leukemia, mutated RAS No, mutated BRAF No
Description: as §1

A498 = experiment: NCI-60 panel growth inhibition; assay type: cell-based; conditions: Homo sapiens, Renal Cancer, mutated RAS No, mutated BRAF No
Description: as §1

MDA-MB-231/ATCC = experiment: NCI-60 panel growth inhibition; assay type: cell-based; conditions: Homo sapiens, Breast Cancer, mutated RAS Yes, mutated BRAF Yes
Description: as §1

HCC-2998 = experiment: NCI-60 panel growth inhibition; assay type: cell-based; conditions: Homo sapiens, Colon Cancer, mutated RAS No, mutated BRAF No
Description: as §1

NCI/ADR-RES = experiment: NCI-60 panel growth inhibition; assay type: cell-based; conditions: Homo sapiens, Ovarian Cancer, mutated RAS No, mutated BRAF No
Description: as §1

IGROV1 = experiment: NCI-60 panel growth inhibition; assay type: cell-based; conditions: Homo sapiens, IGROV-1; Ovarian Cancer; mutated RAS No; mutated BRAF No
Description: as §1

SK-MEL-28 = experiment: NCI-60 panel growth inhibition; assay type: cell-based; conditions: Homo sapiens, Melanoma, mutated RAS No, mutated BRAF Yes
Description: as §1

SF-539 = experiment: NCI-60 panel growth inhibition; assay type: cell-based; conditions: Homo sapiens, CNS Cancer, mutated RAS No, mutated BRAF No
Description: as §1

DU-145 = experiment: NCI-60 panel growth inhibition; assay type: cell-based; conditions: Homo sapiens, Prostate Cancer, mutated RAS No, mutated BRAF No
Description: as §1

KM12 = experiment: NCI-60 panel growth inhibition; assay type: cell-based; conditions: Homo sapiens, Colon Cancer, mutated RAS No, mutated BRAF No
Description: as §1

HL-60(TB) = experiment: NCI-60 panel growth inhibition; assay type: cell-based; conditions: Homo sapiens, Leukemia, mutated RAS Yes, mutated BRAF No
Description: as §1

SN12C = experiment: NCI-60 panel growth inhibition; assay type: cell-based; conditions: Homo sapiens, Renal Cancer, mutated RAS No, mutated BRAF No
Description: as §1

OVCAR-4 = experiment: NCI-60 panel growth inhibition; assay type: cell-based; conditions: Homo sapiens, Ovarian Cancer, mutated RAS No, mutated BRAF No
Description: as §1

SK-MEL-2 = experiment: NCI-60 panel growth inhibition; assay type: cell-based; conditions: Homo sapiens, Melanoma, mutated RAS Yes, mutated BRAF No
Description: as §1

MOLT-4 = experiment: NCI-60 panel growth inhibition; assay type: cell-based; conditions: Homo sapiens, Leukemia, mutated RAS Yes, mutated BRAF No
Description: as §1

NCI-H460 = experiment: NCI-60 panel growth inhibition; assay type: cell-based; conditions: Homo sapiens, NSC Lung Cancer, mutated RAS Yes, mutated BRAF No
Description: as §1

NCI-H226 = experiment: NCI-60 panel growth inhibition; assay type: cell-based; conditions: Homo sapiens, NSC Lung Cancer, mutated RAS No, mutated BRAF No
Description: as §1

SF-268 = experiment: NCI-60 panel growth inhibition; assay type: cell-based; conditions: Homo sapiens, CNS Cancer, mutated RAS No, mutated BRAF No
Description: as §1

MCF7 = experiment: NCI-60 panel growth inhibition; assay type: cell-based; conditions: Homo sapiens, Breast Cancer, mutated RAS No, mutated BRAF No
Description: as §1

EKVX = experiment: NCI-60 panel growth inhibition; assay type: cell-based; conditions: Homo sapiens, NSC Lung Cancer, mutated RAS No, mutated BRAF No
Description: as §1

SF-295 = experiment: NCI-60 panel growth inhibition; assay type: cell-based; conditions: Homo sapiens, CNS Cancer, mutated RAS No, mutated BRAF No
Description: as §1

OVCAR-3 = experiment: NCI-60 panel growth inhibition; assay type: cell-based; conditions: Homo sapiens, Ovarian Cancer, mutated RAS No, mutated BRAF No
Description: as §1

HOP-62 = experiment: NCI-60 panel growth inhibition; assay type: cell-based; conditions: Homo sapiens, NSC Lung Cancer, mutated RAS Yes, mutated BRAF No
Description: as §1

Plk1 = Plk1 localization, confocal microscopy and CenpF immunoprecipitates; assay type: cell-based, human
Description: FIG. 46. CRAF regulates Plk1 activity and localization. FIG. 46(a) Plk1 kinase activity assay performed in WT and CRAF−/− MEFs. Error bars represent s.d. (n=3); * two tailed p value=0.029 using Mann Whitney U test. FIG. 46(b) Immunoblot analysis of XPA-1 cells asynchronous or arrested in mitosis by treatment with KG5, nocodazole or paclitaxel (referred to as Ncdzl and Ptxl respectively). pPlk1 refers to phospho-T210 Plk1 and pHH3 refers to phospho-Histone H3. Data are representative of three independent experiments. FIG. 46(c) Plk1 kinase activity assay performed in HCT-116 cells treated with nocodazole or nocodazole and KG5. Error bars represent s.d. (n=2); * two tailed p value=0.002 using Mann Whitney U test. FIG. 46(d) Immunoblot analysis of CenpF immunoprecipitates from HCT-116 cells untreated or treated with KG5. Data are representative of three independent experiments. FIG. 46(e) Confocal microscopy images of XPA-1 cell at prophase (upper panel), pro-metaphase control untreated (middle panel) or treated with KG5 (lower panel). Cells were stained for phospho-T210 Plk1 (in green), a tubulin (in red) and DNA (TOPRO-3™ in blue). Thick white arrows indicate localization of pPlk1 at the mitotic spindle pole and narrow white arrows indicate localization of pPlk1 at the kinetochores. Scale bar, 10 p.m. […]

CSc1nc(N)cc(Oc2ccc(-c3nnc(Nc4cccc(C(F)(F)F)c4)[nH]3)cc2)n1 [KG5]
growth inhibitory activity against the NCI-60 panel (NCI-60 panel): inhibits the growth of several human cancer cell lines; also recorded: broad growth inhibitory activity
GI50 (CAKI-1): 417 nM
GI50 (SR): 398 nM
GI50 (A498): 468 nM
GI50 (MDA-MB-231/ATCC): 1480 nM
GI50 (HCC-2998): 1410 nM
GI50 (NCI/ADR-RES): 437 nM
GI50 (IGROV1): 447 nM
GI50 (SK-MEL-28): 1580 nM
GI50 (SF-539): 347 nM
GI50 (DU-145): 457 nM
GI50 (KM12): 468 nM
GI50 (HL-60(TB)): 407 nM
GI50 (SN12C): 912 nM
GI50 (OVCAR-4): 575 nM
GI50 (SK-MEL-2): 589 nM
GI50 (MOLT-4): 912 nM
GI50 (NCI-H460): 363 nM
GI50 (NCI-H226): 1780 nM
GI50 (SF-268): 912 nM
GI50 (MCF7): 355 nM
GI50 (EKVX): 501 nM
GI50 (SF-295): 427 nM
GI50 (OVCAR-3): 251 nM
GI50 (HOP-62): 589 nM
Plk1 localization to the spindle pole (Plk1): no effect on Plk1 localization to the spindle pole
accumulation of active Plk1 at the kinetochores (Plk1): prevented the subsequent accumulation of active Plk1 at the kinetochores
